In ChEMBL document CHEMBL4376804, “Review of Transient Receptor Potential Canonical (TRPC5) Channel Modulators and Diseases” (J Med Chem, 2019):

Key:
Format in all cases: cell-based
[1] = molecular target: T1, Short transient receptor potential channel 5 (Homo sapiens, UniProt Q9UL62); experiment: Inhibition of TRPC5 (unknown origin) expressed in HEK293/TREx cells assessed as reduction in intracellular calcium level measured for 3 mins by fluo4 dye-based fluorescence assay
T1 sequence (Q9UL62 whole entry): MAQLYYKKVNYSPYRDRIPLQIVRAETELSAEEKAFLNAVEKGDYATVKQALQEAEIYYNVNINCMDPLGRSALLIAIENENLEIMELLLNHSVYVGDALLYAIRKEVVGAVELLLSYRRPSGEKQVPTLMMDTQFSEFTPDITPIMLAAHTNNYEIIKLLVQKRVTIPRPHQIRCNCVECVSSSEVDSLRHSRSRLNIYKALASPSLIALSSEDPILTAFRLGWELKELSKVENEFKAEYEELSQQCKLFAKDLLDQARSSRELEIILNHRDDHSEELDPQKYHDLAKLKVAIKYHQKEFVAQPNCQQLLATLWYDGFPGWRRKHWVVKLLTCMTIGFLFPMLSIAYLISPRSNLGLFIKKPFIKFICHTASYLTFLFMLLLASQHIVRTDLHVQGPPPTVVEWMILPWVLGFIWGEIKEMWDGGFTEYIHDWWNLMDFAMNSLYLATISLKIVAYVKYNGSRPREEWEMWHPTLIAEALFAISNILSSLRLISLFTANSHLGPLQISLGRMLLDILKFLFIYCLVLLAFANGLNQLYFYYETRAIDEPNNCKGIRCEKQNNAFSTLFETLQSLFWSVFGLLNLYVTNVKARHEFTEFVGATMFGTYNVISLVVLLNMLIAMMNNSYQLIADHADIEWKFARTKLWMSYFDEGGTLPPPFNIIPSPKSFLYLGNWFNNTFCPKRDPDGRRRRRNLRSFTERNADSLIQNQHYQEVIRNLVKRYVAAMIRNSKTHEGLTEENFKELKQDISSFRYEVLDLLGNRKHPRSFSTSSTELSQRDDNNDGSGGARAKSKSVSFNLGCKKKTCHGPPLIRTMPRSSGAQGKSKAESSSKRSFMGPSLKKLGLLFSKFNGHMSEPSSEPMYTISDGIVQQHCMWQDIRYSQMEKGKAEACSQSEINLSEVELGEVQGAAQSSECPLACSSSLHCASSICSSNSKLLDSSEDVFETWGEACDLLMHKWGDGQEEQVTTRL

ORAI1/STIM1 = ORAI1/STIM1 (Rattus norvegicus, UniProt P84903+Q5M848); experiment: Inhibition of ORAI/STIM1 in thapsigargin treated rat RBL2H3 cells assessed as reduction in store-operated calcium entry after 5 mins by fura-2-AM dye based assay
[2] = molecular target: T2, Short transient receptor potential channel 3 (Homo sapiens, UniProt Q13507); experiment: Inhibition of YFP-tagged TRPC3 (unknown origin) expressed in HEK293 cells assessed as reduction carbhocol-induced receptor operated Calcium influx after 5 mins by fura-2-AM dye based assay
T2 sequence (Q13507 whole entry): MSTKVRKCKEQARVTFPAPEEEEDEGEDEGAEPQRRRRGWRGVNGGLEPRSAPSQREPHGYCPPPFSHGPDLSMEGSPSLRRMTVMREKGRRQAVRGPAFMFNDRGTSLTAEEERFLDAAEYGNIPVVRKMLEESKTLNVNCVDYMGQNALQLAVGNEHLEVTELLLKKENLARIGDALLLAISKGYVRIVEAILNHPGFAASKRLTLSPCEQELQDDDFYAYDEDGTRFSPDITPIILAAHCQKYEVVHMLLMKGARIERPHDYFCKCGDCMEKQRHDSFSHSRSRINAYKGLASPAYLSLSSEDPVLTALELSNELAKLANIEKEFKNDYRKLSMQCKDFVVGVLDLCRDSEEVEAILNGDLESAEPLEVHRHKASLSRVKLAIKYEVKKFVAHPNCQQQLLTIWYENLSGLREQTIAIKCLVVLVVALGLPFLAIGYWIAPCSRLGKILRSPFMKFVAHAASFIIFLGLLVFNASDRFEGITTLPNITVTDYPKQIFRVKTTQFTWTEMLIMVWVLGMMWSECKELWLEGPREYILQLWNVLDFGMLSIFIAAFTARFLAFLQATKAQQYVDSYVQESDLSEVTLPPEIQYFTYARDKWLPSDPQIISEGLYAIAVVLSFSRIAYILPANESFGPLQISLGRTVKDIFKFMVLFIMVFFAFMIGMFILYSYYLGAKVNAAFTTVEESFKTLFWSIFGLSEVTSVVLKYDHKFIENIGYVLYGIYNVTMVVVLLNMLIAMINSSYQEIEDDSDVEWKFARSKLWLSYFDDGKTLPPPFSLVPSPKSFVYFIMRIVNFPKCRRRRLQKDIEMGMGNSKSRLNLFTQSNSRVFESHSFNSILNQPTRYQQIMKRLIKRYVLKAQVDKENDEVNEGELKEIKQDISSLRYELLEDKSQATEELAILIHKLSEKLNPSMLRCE

[3] = molecular target: T1, Short transient receptor potential channel 5; experiment: Inhibition of human TRPC5 expressed in HEK293 cells assessed as reduction in gadolinium-induced calcium entry after 30 mins by fluo-4 dye based fluorescence assay

Chain of ORAI1/STIM1 (P84903 whole entry): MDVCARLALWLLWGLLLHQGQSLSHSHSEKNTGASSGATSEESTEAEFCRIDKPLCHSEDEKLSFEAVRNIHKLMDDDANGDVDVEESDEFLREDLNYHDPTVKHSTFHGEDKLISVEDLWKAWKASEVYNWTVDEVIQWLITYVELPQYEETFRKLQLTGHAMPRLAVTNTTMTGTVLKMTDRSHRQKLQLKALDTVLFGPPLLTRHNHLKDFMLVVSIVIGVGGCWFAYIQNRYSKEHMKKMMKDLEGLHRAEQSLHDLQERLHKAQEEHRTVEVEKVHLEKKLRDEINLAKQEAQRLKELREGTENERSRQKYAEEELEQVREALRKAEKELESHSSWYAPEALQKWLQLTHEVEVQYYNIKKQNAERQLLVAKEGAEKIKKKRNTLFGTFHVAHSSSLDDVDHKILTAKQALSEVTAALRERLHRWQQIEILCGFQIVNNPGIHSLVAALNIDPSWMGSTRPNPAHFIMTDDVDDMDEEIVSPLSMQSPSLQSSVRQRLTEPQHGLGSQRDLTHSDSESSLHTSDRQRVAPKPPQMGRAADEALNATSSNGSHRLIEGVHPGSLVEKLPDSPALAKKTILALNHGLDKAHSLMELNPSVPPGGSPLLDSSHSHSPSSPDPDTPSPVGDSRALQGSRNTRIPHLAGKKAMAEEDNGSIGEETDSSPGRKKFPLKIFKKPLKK
Chain of ORAI1/STIM1 (Q5M848 whole entry): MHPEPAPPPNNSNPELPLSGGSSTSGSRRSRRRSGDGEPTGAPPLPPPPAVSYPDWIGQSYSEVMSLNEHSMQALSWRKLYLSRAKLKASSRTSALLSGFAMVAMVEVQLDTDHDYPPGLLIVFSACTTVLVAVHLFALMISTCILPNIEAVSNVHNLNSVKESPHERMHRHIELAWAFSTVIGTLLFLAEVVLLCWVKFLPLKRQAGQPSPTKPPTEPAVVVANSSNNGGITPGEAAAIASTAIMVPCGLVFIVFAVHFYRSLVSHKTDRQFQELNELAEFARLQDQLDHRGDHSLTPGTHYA

CC(C)CCc1c(-c2ccc(Cl)cc2)ncc2c1c(=O)n(CCCO)c(=O)n2C
IC50 [1]: 195 to 9800 nM

CC(C)Oc1ccc2c(c1Cc1ccc(F)cc1)c(=O)n(CCCO)c(=O)n2C
IC50 [1]: 1 to 395 nM

CC(C)CCc1c(-c2ccccc2C(C)C)ncc2c1c(=O)n(CCCO)c(=O)n2C
IC50 [1]: 195 to 9800 nM

Cc1c(-c2cccc(Cl)c2Cl)sc2c1c(=O)n(CCCO)c(=O)n2C
IC50 [1]: 21 to 1700 nM

Cn1c(=O)n(CCCO)c(=O)c2c1cc(-c1cccc(OC(F)(F)F)c1)n2Cc1ccc(Cl)cc1
IC50 [1]: 408 to 7540 nM

Cn1c(=O)n(CCCO)c(=O)c2c(Cc3ccc(Cl)cc3)c(Oc3cccc(Cl)c3)ncc21
IC50 [1]: 195 to 9800 nM

CC(C)CCc1c(-c2cccc(OC(F)(F)F)c2)sc2c1c(=O)n(CCCO)c(=O)n2C
IC50 [1]: 21 to 1700 nM

Cn1c(=O)n(CCCO)c(=O)c2c(Cc3ccccc3)c(Oc3cccc(Cl)c3)ccc21
IC50 [1]: 1 to 395 nM

CC(C)CCc1c(-c2cccc(Cl)c2)ncc2c1c(=O)n(CCCO)c(=O)n2C
IC50 [1]: 195 to 9800 nM

Cn1c(=O)n(CCCO)c(=O)c2c(Cc3ccccc3)c(-c3cccc(OC(F)(F)F)c3)ccc21
IC50 [1]: 1 to 395 nM

Cn1c(=O)n(CCCCO)c(=O)c2c(Cc3ccccc3)c(Oc3cccc(OC(F)(F)F)c3)ccc21
IC50 [1]: 1 to 395 nM

Cc1c(-c2cccc(Cl)c2)sc2c1c(=O)n(CCCO)c(=O)n2C
IC50 [1]: 21 to 1700 nM

CC(C)CC(O)c1c(-c2cccc(OC(F)(F)F)c2)sc2c1c(=O)n(CCCO)c(=O)n2C (stereo not drawn)
IC50 [1]: 21 to 1700 nM

Cn1c(=O)n(CCCO)c(=O)c2c(Cc3ccc(Cl)cc3)c(-c3cccc(Cl)c3)sc21
IC50 [1]: 21 to 1700 nM

Cc1cn(Cc2ccc(Cl)cc2)c2c(=O)n(CCCO)c(=O)n(C)c12
IC50 [1]: 408 to 7540 nM

Cn1c(=O)n(CCCOC(=O)O)c(=O)c2c(Cc3ccc(Cl)cc3)c(-c3ccc(Cl)cc3)ncc21
IC50 [1]: 195 to 9800 nM

Cn1c(=O)n(CCCO)c(=O)c2c(Cc3ccccc3)c(Oc3cccc(OC(F)(F)F)c3)ccc21
IC50 [1]: 1 to 395 nM

Cn1c(=O)n(CCCO)c(=O)c2c(C(O)c3ccc(Cl)cc3)c(Oc3cccc(OC(F)(F)F)c3)sc21 (stereo not drawn)
IC50 [1]: 21 to 1700 nM

Cn1c(=O)n(CCCO)c(=O)c2c(Cc3ccc(F)cc3)c(Oc3cccc(OC(F)(F)F)c3)ccc21
IC50 [1]: 1 to 395 nM

CC(C)c1ccccc1-c1ncc2c(c1Cc1ccc(Cl)cc1)c(=O)n(CCCO)c(=O)n2C
IC50 [1]: 195 to 9800 nM

Cc1ccc(S(=O)(=O)Nc2ccc(-n3nc(C(F)(F)F)cc3C(F)(F)F)cc2)cc1
IC50 (ORAI1/STIM1): 13100 nM
IC50 [2]: 720 nM

Cc1c(-c2ccc(Cl)c(Cl)c2)sc2c1c(=O)n(CCCO)c(=O)n2C
IC50 [1]: 21 to 1700 nM

Cn1c(-c2cccc(OC(F)(F)F)c2)cc2c1c(=O)n(CCCO)c(=O)n2C
IC50 [1]: 408 to 7540 nM

Cc1c(-c2ccc(F)c(F)c2)sc2c1c(=O)n(CCCO)c(=O)n2C
IC50 [1]: 21 to 1700 nM

Cn1c(=O)n(CCCO)c(=O)c2c(Cc3ccc(Cl)cc3)c(Oc3cccc(Cl)c3)sc21
IC50 [1]: 21 to 1700 nM

Cc1c(-c2cccc(F)c2)sc2c1c(=O)n(CCCO)c(=O)n2C
IC50 [1]: 21 to 1700 nM

Cc1c(-c2cccc(OC(F)(F)F)c2)n(Cc2ccc(Cl)cc2)c2c(=O)n(CCCO)c(=O)n(C)c12
IC50 [1]: 408 to 7540 nM

Cn1c(=O)n(CCCO)c(=O)c2c(Cc3ccccc3)c(-c3cccc(OC(F)(F)F)c3)ncc21
IC50 [1]: 195 to 9800 nM

Cn1c(=O)n(CCCO)c(=O)c2c(Cc3ccc(Cl)cc3)c(-c3cccc(OC(F)(F)F)c3)sc21
IC50 [1]: 21 to 1700 nM

Cn1c(=O)n(CCCO)c(=O)c2c(Cc3ccc(Cl)cc3)c(Oc3cccc(OC(F)(F)F)c3)sc21
IC50 [1]: 21 to 1700 nM

O=c1cc(-c2ccc(O)cc2)oc2cc(O)cc(O)c12 [APIGENIN]
IC50 [3]: > 10000 nM

CCCOc1ccc2c(c1Cc1ccc(F)cc1)c(=O)n(CCCO)c(=O)n2C
IC50 [1]: 1 to 395 nM

Cn1c(=O)n(CCCO)c(=O)c2c1c(-c1cccc(Cl)c1)cn2Cc1ccc(Cl)cc1
IC50 [1]: 408 to 7540 nM

Cc1c(-c2cccc(OC(F)(F)F)c2)[nH]c2c(=O)n(CCCO)c(=O)n(C)c12
IC50 [1]: 408 to 7540 nM

Cn1c(=O)n(CCCO)c(=O)c2c(C(O)c3ccc(Cl)cc3)c(-c3cccc(Cl)c3)sc21 (stereo not drawn)
IC50 [1]: 21 to 1700 nM

Cn1c(=O)n(CCCO)c(=O)c2c1cc(-c1cccc(Cl)c1)n2Cc1ccc(Cl)cc1
IC50 [1]: 408 to 7540 nM

CCCCOc1ccc2c(c1Cc1ccc(F)cc1)c(=O)n(CCCO)c(=O)n2C
IC50 [1]: 1 to 395 nM

CC(C)c1ccccc1-c1cc2c(=O)n(CCCO)c(=O)n(C)c2cn1
IC50 [1]: 195 to 9800 nM

Cc1c(-c2ccc(Cl)cc2)sc2c1c(=O)n(CCCO)c(=O)n2C
IC50 [1]: 21 to 1700 nM

Cc1c(-c2ccccc2Cl)sc2c1c(=O)n(CCCO)c(=O)n2C
IC50 [1]: 21 to 1700 nM

Cc1c(-c2ccccc2OC(F)(F)F)sc2c1c(=O)n(CCCO)c(=O)n2C
IC50 [1]: 21 to 1700 nM

Cc1c(-c2cncc(Cl)c2)sc2c1c(=O)n(CCCO)c(=O)n2C
IC50 [1]: 21 to 1700 nM

Cc1c(-c2ccc(F)c(C(F)(F)F)c2)sc2c1c(=O)n(CCCO)c(=O)n2C
IC50 [1]: 21 to 1700 nM

Cn1c(=O)n(CCCO)c(=O)c2c(Cc3ccc(Cl)cc3)c(-c3ccc(Cl)cc3)sc21
IC50 [1]: 21 to 1700 nM

Cn1c(=O)n(CCCO)c(=O)c2c(Cc3ccc(Cl)cc3)c(-c3cccc(Cl)c3)oc21
IC50 [1]: 21 to 1700 nM

O=c1c(O)c(-c2cc(O)c(O)c(O)c2)oc2cc(O)cc(O)c12 [MYRICETIN]
IC50 [3]: > 10000 nM

COc1ccc2c(c1Cc1ccc(F)cc1)c(=O)n(CCCO)c(=O)n2C
IC50 [1]: 1 to 395 nM

Cc1c(-c2cccc(OC(F)(F)F)c2)sc2c1c(=O)n(CCCO)c(=O)n2C
IC50 [1]: 21 to 1700 nM

O=c1cc(-c2ccc(O)c(O)c2)oc2cc(O)cc(O)c12 [LUTEOLIN]
IC50 [3]: > 10000 nM

O=c1c2c(Cc3ccc(Cl)cc3)c(-c3cccc(Cl)c3)oc2n(CCCO)c(=O)n1CCCO
IC50 [1]: 21 to 1700 nM

Cc1c(-c2ccc3ccccc3c2)sc2c1c(=O)n(CCCO)c(=O)n2C
IC50 [1]: 21 to 1700 nM

Cc1c(-c2cccc(OC(F)(F)F)c2)n(C)c2c(=O)n(CCCO)c(=O)n(C)c12
IC50 [1]: 408 to 7540 nM
